Experimental findings from patent US4734493A, “Novel anthracycline antibiotics” (Sanraku, Incorporated, priority 1985, dated 1988) are described below.

≈ marks a conversion by molar mass, not a printed value. Read-outs that look alike come from different tables or passages of the source.

Test [1] relates to mouse leukemia L1210 culture cell. Kind of test: Proliferation inhibiting action against mouse leukemia L1210 culture cells. It is filed as cell-based. As for the experimental part:
(§1) For example, […] of L1210 cells were inoculated, on RPM 11640 medium (Rosewellberg Research Institute) containing 20% bovine serum and the compound of the present invention was supplemented in a concentration of 0.0005 to 0.25 μg/ml followed by culturing at 37° C. in a carbon dioxide gas incubator. A 50% proliferation inhibiting concentration was determined as compared to control. Further the aforesaid L1210 culture cells were suspended in 8×10^5 cells/ml in RPM 11640 medium containing 10% bovine serum. After culturing at 37° C. for 1 to 2 hours in a carbon dioxide gas incubator, the compound of the present invention was supplemented in various concentrations. Fifteen minutes after, ^14 C-uridine (0.05 μCi/ml) or ^14 C-thymidine (0.05 μCi/ml) was added to the system followed by culturing at 37° C. for 60 minutes. To the reaction mixture was added chilled 10% trichloroacetic acid to discontinue the reaction. At the same time, insoluble matters were precipitated, further washed twice with chilled 5% trichloroacetic acid and then dissolved in formic acid to provide for measurement of the radioactivity. A 50% intake inhibiting concentration was determined from a rate of intake of the radioactivity in the control group added with no compound.

For test [2], the system named is DNA synthesis in mouse leukemia L1210 culture cell. Description: Nucleic acid synthesis inhibiting action: DNA synthesis (14C-thymidine intake) in L1210 culture cells. It counts as cell-based. Conditions: 1 h, 60 minutes, 10% bovine serum, 37° C., read-out: 50% Inhibiting Concentration (IC50), Inhibition of DNA Synthesis. The method, then: as §1
Test [3] concerns RNA synthesis in mouse leukemia L1210 culture cell. Description: Nucleic acid synthesis inhibiting action: RNA synthesis (14C-uridine intake) in L1210 culture cells. It counts as cell-based. The settings on record: 1 h, 60 minutes, 10% bovine serum, 37° C., read-out: 50% Inhibiting Concentration (IC50), Inhibition of RNA Synthesis. The method, then: as §1
For a further test, the system named is murine L1210 leukemia. Kind of test: In vivo antitumor activity against murine L1210 leukemia in CDF1 mice. The method, then: The therapeutic effect of obelmycins were studied on CDF1 mice bearing L1210 leukemia, From 24 hours after 1×10^5 L1210 cells/animal were intraperitoneally transplanted to CDF1 mice, Obelmycins were intraperitoneally given everyday for 10 days. The prolongation of the survival time was calculated relative to control animals receiving physiological saline as 100.
Inoculation: 1×10^5 cells/mouse (ip)
Treatment: day 1 to 10, daily (ip)

[4] abbreviates: L1210 cells, RPM 11640 medium with 20% bovine serum, 37° C., read-out: 50% Inhibiting Concentration (IC50), Inhibition of Cell Proliferation.
[5] abbreviates: L1210, read-out: 50% Inhibiting Concentration (IC50), Inhibition of Cell Proliferation.
Where [6] appears, read: dose 3.1 μg/kg/day ip, daily day 1 to 10, CDF1 mice n=6, survival time relative to saline control as 100.

Regarding `CCC1(O)CCc2c(O)c3c(c(O)c2C1OC1CC(N(C)C)C(OC2CC(O)C(OC4CCC(O)C(C)O4)C(C)O2)C(C)O1)C(=O)c1c(O)ccc(O)c1C3=O` (stereo not shown) [Obelmycin F], the IC50 in test [1] (setting [4]) came to 0.092 µg/mL (≈ 0.117 µM); in test [2], 1.43 µg/mL (≈ 1.82 µM); in test [3], 0.6 µg/mL (≈ 0.762 µM). Also, the “Antitumor effect T C (%)” value in the test on murine L1210 leukemia (ip, 0.025 mg/kg, 24 h) is on record as 130%.
In the case of `CCC1(O)CC(OC2CC(N(C)C)C(OC3CC(O)C(OC4CCC(O)C(C)O4)C(C)O3)C(C)O2)c2c(O)c3c(c(O)c2C1OC1CC(N(C)C)C(OC2CC(O)C(OC4CCC(O)C(C)O4)C(C)O2)C(C)O1)C(=O)c1c(O)ccc(O)c1C3=O` (stereo not shown) [Obelmycin D], the IC50 was 0.004 µg/mL (≈ 0.00332 µM) in test [1] (setting [5]), 1.2 µg/mL (≈ 0.996 µM) in test [2] and 0.175 µg/mL (≈ 0.145 µM) in test [3]. In addition, in the test with murine L1210 leukemia (setting [6]), the “Antitumor effect T C (%)” value was determined as 140%.
Take `CCC1(O)CCc2c(O)c3c(c(O)c2C1OC1CC(N(C)C)C(O)C(C)O1)C(=O)c1c(O)ccc(O)c1C3=O` (stereo not shown) [Obelmycin G]: the IC50 in test [1] (setting [4]) came to 0.2 µg/mL (≈ 0.368 µM); in test [2] it was 1.5 µg/mL (≈ 2.76 µM); in test [3], 1.1 µg/mL (≈ 2.02 µM). In the test with murine L1210 leukemia (dose 200 μg/kg/day ip, daily day 1 to 10, CDF1 mice n=6, survival time relative to saline control as 100), the “Antitumor effect T C (%)” value was 145%.
As for `CCC1(O)CC(OC2CC(N(C)C)C(O)C(C)O2)c2c(O)c3c(c(O)c2C1O)C(=O)c1c(O)ccc(O)c1C3=O` (stereo not shown) [Obelmycin A], the IC50 in test [1] (setting [4]) amounted to 0.001 µg/mL (≈ 0.00179 µM); in test [2], 0.58 µg/mL (≈ 1.04 µM); in test [3], 0.14 µg/mL (≈ 0.25 µM). For the same compound, the “Antitumor effect T C (%)” value in the test on murine L1210 leukemia (ip, 0.1 mg/kg, 24 h) was found to be 185%.
On to `CCC1(O)CCc2c(O)c3c(c(O)c2C1OC1CC(N(C)C)C(OC2CCC(OC4CCC(O)C(C)O4)C(C)O2)C(C)O1)C(=O)c1c(O)ccc(O)c1C3=O` (stereo not shown) [Obelmycin E], for which the IC50 amounted to 0.062 µg/mL (≈ 0.0803 µM) in test [1] (setting [5]), 1.3 µg/mL (≈ 1.68 µM) in test [2] and 0.78 µg/mL (≈ 1.01 µM) in test [3]. The “Antitumor effect T C (%)” value in the test on murine L1210 leukemia (dose 12.5 μg/kg/day ip, daily day 1 to 10, CDF1 mice n=6, survival time relative to saline control as 100) is on record as 135%.
With `CCC1(O)CC(OC2CC(N(C)C)C(OC3CCC(OC4CCC(O)C(C)O4)C(C)O3)C(C)O2)c2c(O)c3c(c(O)c2C1OC1CC(N(C)C)C(OC2CCC(OC4CCC(O)C(C)O4)C(C)O2)C(C)O1)C(=O)c1c(O)ccc(O)c1C3=O` (stereo not shown) [Obelmycin B], the IC50 came out at 0.0009 µg/mL (≈ 0.000767 µM) in test [1] (setting [5]), 0.26 µg/mL (≈ 0.222 µM) in test [2] and 0.025 µg/mL (≈ 0.0213 µM) in test [3]. Moreover, in the test with murine L1210 leukemia (setting [6]), the “Antitumor effect T C (%)” value turned out to be 150%.
For `CCC1(O)CC(OC2CC(N(C)C)C(OC3CC(O)C(OC4CCC(O)C(C)O4)C(C)O3)C(C)O2)c2c(O)c3c(c(O)c2C1OC1CC(N(C)C)C(OC2CCC(OC4CCC(O)C(C)O4)C(C)O2)C(C)O1)C(=O)c1c(O)ccc(O)c1C3=O` (stereo not shown) [Obelmycin C] the same measures were 0.001 µg/mL (≈ 0.000841 µM), 0.38 µg/mL (≈ 0.32 µM), 0.043 µg/mL (≈ 0.0362 µM) and 145%.
